Reference: patent US12036226B2, “Methods of treating subjects having diabetes with chronic kidney disease” (Poxel SA, priority 2018, dated 2024)
Where “and” joins values, the source holds several entries; their conditions need not be identical. Identical values can stand only once. Like-named read-outs stand apart in the source and are kept apart here.

Test: Phase 1 study of pharmacokinetics and safety of imeglimin in subjects with renal impairment compared to normal renal function
Type: in vivo, human
Settings: for AUC: read-out: AUC0-τ
Description: An open-label, parallel-group, multi-center, multiple oral dose study to investigate the pharmacokinetics of imeglimin in subjects with renal impairment compared to subjects with normal renal function was completed.
In this study, a total of 51 subjects received imeglimin at the daily dose of 1000 mg, administered either as 1000 mg QD (once a day) or 500 mg bid (twice a day) during 8 days. […] Twenty-four control subjects with normal renal function were matched to mild and moderate (10 receiving QD and 8 receiving bid regimen) and to severe (6 receiving bid regimen) renal impaired subjects. Measurement of the urine to plasma ratio of creatinine using 24 hours urine sampling was calculated (CLCrea).
Imeglimin was administered in the morning time during 8 consecutive days in the group of subjects receiving 1000 mg once a day and in the morning and evening time during 7 consecutive days followed by a morning administration of 500 mg in the morning time on Day 8 in the group of subjects receiving 500 mg twice a day. Morning administrations on Days 1 and 8 were performed on a fasted state, after a 10 hours overnight fasting and during 4 hours after imeglimin administration.
Inclusion Criteria: For subjects with normal renal functions: CLCrea>80 mL/min based on calculation using 24-hrs sampling on day −2. For subjects with impaired renal function: CLCrea 50 to 80 mL/min for subjects with mild renal impairment, 30 to <50 mL/min for subjects with moderate renal impairment, and <30 mL/min for subjects with severe renal impairment based on calculation using 24-hrs sampling on day −2.
Pharmacokinetic parameters included apparent volume of distribution during the terminal phase following extravascular administration (Vz/F), area under the curve of the plasma concentration as a function of time (AUC0-t), the maximum observed concentration (Cmax), the time to maximum concentration (tmax), the plasma half-life (t1/2), the total body clearance of drug from plasma following extravascular administration (CL/F), and other parameters.
The urinary excretion parameters of imeglimin in subjects with differing degrees of renal impairment following QD or bid oral doses of imeglimin on day 8 are summarized in Table 3 and Table 4. Parameters measured include amount of unchanged drug excreted in urine as a function of time (Ae0-t), renal clearance (CLR), and the amount of unchanged drug excreted in urine during one dosing interval (Ae0-τ), and the percentage of administered dose excreted in urine during one dosing interval (fe0-τ).
For the evaluation of safety and tolerability of multiple oral doses of 1000 mg imeglimin QD (i.e. a total dose of 8000 mg imeglimin) or 500 mg imeglimin BID (i.e. a total dose of 7500 mg imeglimin), laboratory tests (hematology, clinical chemistry, urinalysis), determination of vital signs, ECG recordings, questioning of AEs and physical examinations were performed. […] The incidence of AEs observed within the course of the study was low. Overall 31 out of 51 subjects reported 54 treatment emergent AEs. Of these, only 15 were judged as likely related to the study drug. The majority (39 AEs) were assessed as unlikely related. Based on these low incidence no clear differences between the dose regimens and between the renal impairment groups can be shown.

[1] = 500 mg bid oral, Day 8, CKD Stage 2 (mild renal impairment) (N = 4), geometric mean (CV %)
[2] = 500 mg bid oral, Day 8, CKD Stage 3 (moderate renal impairment) (N = 6), geometric mean (CV %)
[3] = 500 mg bid oral, Day 8, CKD Stage 4 (severe renal impairment) (N = 5), geometric mean (CV %)
[4] = 500 mg bid oral, Day 8, Part 1 CKD Stage 2 (mild renal impairment; N = 4), geometric mean
[5] = 500 mg bid oral, Day 8, Part 1 CKD Stage 3 (moderate renal impairment; N = 6), geometric mean
[6] = 500 mg bid oral, Day 8, Part 1 normal renal function (N = 8), geometric mean
[7] = 500 mg bid oral, Day 8, Part 2 CKD Stage 4 (severe renal impairment; N = 5), geometric mean
[8] = 500 mg bid oral, Day 8, Part 2 normal renal function (N = 6), geometric mean
[9] = 500 mg bid oral, Day 8, normal renal function (N = 6), geometric mean (CV %)
[10] = 500 mg bid oral, Day 8, normal renal function (N = 8), geometric mean (CV %)
[11] = 1000 mg QD or 500 mg bid over 8 days, all groups
[12] = 1000 mg QD oral, Day 8, CKD Stage 3 (moderate renal impairment) (N = 6), geometric mean
[13] = 1000 mg QD oral, Day 8, CKD stage 2 (mild renal impairment; N = 5), geometric mean
[14] = 1000 mg QD oral, Day 8, normal renal function (N = 10), geometric mean
[15] = human, plasma, po, 500 mg, 500 mg bid oral, Day 8, Part 1 CKD Stage 2 (mild renal impairment; N = 4), geometric mean
[16] = human, plasma, po, 500 mg, 500 mg bid oral, Day 8, Part 1 CKD Stage 3 (moderate renal impairment; N = 6), geometric mean

Q: With `C[C@H]1N=C(N(C)C)N=C(N)N1` [imeglimin, (6R)—N^2, N^2,6-trimethyl-3,6-dihydro-1,3,5-triazine-2,4-diamine] as the molecule, how does the Ae0-t [1] read?
A: The Ae0-t was 404 (16.4) mg.

Q: And the Ae0-τ [1]?
A: Its Ae0-τ is 215 (11.5) mg.

Q: And the “feτ (fraction of dose excreted in urine, 12-hour dosing interval)” value [1]?
A: Its value is 43% and 42.9 (11.5) %.

Q: And the Ae0-t [2]?
A: The Ae0-t was 328 (22.6) mg.

Q: What about the Ae0-τ [2] of the same molecule?
A: Its Ae0-τ is 199 (29.1) mg.

Q: And the “feτ (fraction of dose excreted in urine, 12-hour dosing interval)” value [2]?
A: The value was 40% and 39.8 (29.1) %.

Q: What about the Ae0-t [3] of the same molecule?
A: The Ae0-t was 357 (25.5) mg.

Q: And the Ae0-τ [3]?
A: The Ae0-τ was 209 (15.6) mg.

Q: And the “feτ (fraction of dose excreted in urine, 12-hour dosing interval)” value [3]?
A: The value was 42% and 41.8 (15.6) %.

Q: And the CL/F [4]?
A: Its CL/F is 754 mL/min.

Q: What about the Cpre [4] of the same molecule?
A: Its Cpre is 572 ng/mL.

Q: And the CL/F [5]?
A: Its CL/F is 485 mL/min.

Q: And the Cmin [5]?
A: The Cmin was 808 ng/mL.

Q: What about the Cpre [5] of the same molecule?
A: The Cpre was 996 ng/mL.

Q: What about the CL/F [6] of the same molecule?
A: The CL/F was 1128 mL/min.

Q: And the Cpre [6]?
A: The Cpre was 254 ng/mL.

Q: And the CL/F [7]?
A: The CL/F was 336 mL/min.

Q: What about the Cmin [7] of the same molecule?
A: The Cmin was 1211 ng/mL.

Q: What about the Cpre [7] of the same molecule?
A: Its Cpre is 1335 ng/mL.

Q: What about the CL/F [8] of the same molecule?
A: Its CL/F is 1195 mL/min.

Q: What about the Cmin [8] of the same molecule?
A: Its Cmin is 169 ng/mL.

Q: And the Cpre [8]?
A: The Cpre was 209 ng/mL.

Q: And the Ae0-t [9]?
A: Its Ae0-t is 298 (30.6) mg.

Q: What about the Ae0-τ [9] of the same molecule?
A: The Ae0-τ was 229 (25.3) mg.

Q: And the “feτ (fraction of dose excreted in urine, 12-hour dosing interval)” value [9]?
A: Its value is 45.9 (25.3) %.

Q: What about the Ae0-t [10] of the same molecule?
A: Its Ae0-t is 307 (37.7) mg.

Q: And the Ae0-τ [10]?
A: Its Ae0-τ is 222 (22.6) mg.

Q: And the “feτ (fraction of dose excreted in urine, 12-hour dosing interval)” value [10]?
A: The value was 44.4 (22.6) %.

Q: And the “number of treatment emergent AEs” value [11]?
A: Its value is 54.

Q: What about the “subjects reporting treatment emergent AEs” value [11] of the same molecule?
A: Its value is 31 out of 51 subjects.

Q: What about the “Ae0-t (unchanged drug excreted in urine)” value [12] of the same molecule?
A: The value was 453 mg.

Q: And the Ae0-τ [12]?
A: Its Ae0-τ is 345 mg.

Q: And the CL/F [12]?
A: The CL/F was 573 mL/min.

Q: And the Cpre [12]?
A: The Cpre was 382 ng/mL.

Q: And the “feτ (percentage of dose excreted in urine during one dosing interval)” value [12]?
A: The value was 34.5%.

Q: And the CL/F [13]?
A: Its CL/F is 828 mL/min.

Q: And the Cpre [13]?
A: Its Cpre is 181 ng/mL.

Q: And the “Ae0-t (unchanged drug excreted in urine)” value [14]?
A: The value was 460 mg.

Q: And the Ae0-τ [14]?
A: Its Ae0-τ is 386 mg.

Q: And the CL/F [14]?
A: Its CL/F is 1082 mL/min.

Q: What about the Cav [14] of the same molecule?
A: Its Cav is 642 ng/mL.

Q: What about the Cpre [14] of the same molecule?
A: The Cpre was 136 ng/mL.

Q: What about the “feτ (percentage of dose excreted in urine during one dosing interval)” value [14] of the same molecule?
A: The value was 38.6%.

Q: And the “QRS-, QT intervals and corrected QTc-intervals (Bazett, Fridericia)” value (ECG recordings)?
A: The value was “did not reveal any relevant changes”.

Q: And the vital signs (following the administration of imeglimin)?
A: The vital signs was “did not show any clinically relevant changes”.

Q: And the clinical laboratory parameters (human, in vivo)?
A: The clinical laboratory parameters was “no significant abnormality observed”.

Q: What about the half-life (human, plasma, oral, across groups) of the same molecule?
A: The half-life was 13 to 26 h.

Q: And the Tmax (human, plasma, oral, post-dose, across renal function groups and time, read-out: Median Tmax)?
A: The Tmax was 3.5 to 5 h.

Q: And the Cmax [15]?
A: The Cmax was 1320 ng/mL.

Q: What about the half-life [15] of the same molecule?
A: Its half-life is 26.1 h.

Q: What about the AUC [15] of the same molecule?
A: The AUC was 11100 ng·h/mL.

Q: What about the concentration at 8 day (human, plasma, po, 500 mg, 500 mg bid oral, Day 8, Part 1 CKD Stage 2 (mild renal impairment; N = 4), geometric mean, read-out: Cav) of the same molecule?
A: Its concentration at 8 day is 921 ng/mL.

Q: And the concentration at 8 day (human, plasma, po, 500 mg, 500 mg bid oral, Day 8, Part 1 CKD Stage 2 (mild renal impairment; N = 4), geometric mean, read-out: Cmin)?
A: Its concentration at 8 day is 459 ng/mL.

Q: And the Vd/F (human, plasma, po, 500 mg, 500 mg bid oral, Day 8, Part 1 CKD Stage 2 (mild renal impairment; N = 4), geometric mean, read-out: Vz/F)?
A: The Vd/F was 1700 L.

Q: What about the Tmax (human, plasma, po, 500 mg, 500 mg bid oral, Day 8, Part 1 CKD Stage 2 (mild renal impairment; N = 4), median, read-out: tmax) of the same molecule?
A: Its Tmax is 4 h.

Q: And the Cmax [16]?
A: The Cmax was 2000 ng/mL.

Q: What about the half-life [16] of the same molecule?
A: Its half-life is 21.9 h.

Q: What about the AUC [16] of the same molecule?
A: The AUC was 17200 ng·h/mL.
